The test system of the test is Plasmodium berghei (KBG-173 strain). The experiment in a line: Plasmodium berghei assay in vivo (modified Thompson Test), survival of infected mice. Further details: species or system Charles River CD-1 mice. To be noted: oral bid on days 3, 4 and 5; for Average Days Survival: 31 day experiment. The procedure:
In vivo antimalarial activity was tested in male or female Charles River CD-1 mice that were 4-5 weeks old and weighed 20-25 g They were housed in groups of 3 or 4 in standard plastic cages with wire tops, Bed-o-cob® bedding, 12 hr/day of light, and maintained at 75° F. They were fed a standard Ralston Purina mouse chow and the cages and bottles were changed twice a week. Test compounds were ground in a mortar and pestle and diluted with enough vehicle to give a volume of 10 mL/kg of mouse weight. The oral doses were prepared in 0.5% hydroxyethylcellulose (Union Carbide Corp. WP 4400)/0.1% Tween-80 (Fisher Scientific T164-500). The amount of drug was calculated on the free base weight. The mice were infected intraperitoneally on day 0 with 5×10^4 erythrocytes parasitized with Plasmodium berghei (KBG-173 strain) from a donor mouse having a parasitemia between 5-10%. On days 3, 4 and 5 the test compounds were administered bid, spaced 6 hr apart, by oral gavage to the mice. Activity was measured by survival, with full activity defined as all animals living at day 31. Partial activity is defined as days of increased survival versus the infected non-treated controls. This in vivo model is a modification of the Thompson Test. For further description see Ager, A. L, Jr. Rodent Malaria Models. In Handbook of Experimental Pharmacology: Antimalarial Drugs. 1. 68/1; Peters, W., Richards, W. H. G., Eds.: Springer-Verlag: Berlin, 1984, pp. 231-33.

[1] abbreviates: Plasmodium berghei, 744 h, 4 mg/kg/day, read-out: Number of mice alive at day 31 (converted).
The mark [2] stands for this setting: Plasmodium berghei, 744 h, 8 mg/kg/day, read-out: Number of mice alive at day 31 (converted).
Setting [3] is: Plasmodium berghei, 744 h, 16 mg/kg/day, read-out: Number of mice alive at day 31 (converted).
The mark [4] stands for this setting: Plasmodium berghei, 744 h, 32 mg/kg/day, read-out: Number of mice alive at day 31 (converted).
[5] abbreviates: Plasmodium berghei, 744 h, 64 mg/kg/day, read-out: Number of mice alive at day 31 (converted).
The mark [6] stands for this setting: Plasmodium berghei, 744 h, 2 mg/kg/day, read-out: Number of mice alive at day 31 (converted).

Marks after values point to notes of the source that are not given here. Some results are limits rather than exact numbers.

In the case of `CC(C)(C)NCc1cc(C(C)(C)C)cc(-c2ccc(OC(F)(F)F)cc2)c1O` [Example 5, 5-(tert-Butyl)-3-((tert-butylamino)methyl)-4′-(trifluoromethoxy)-[1,1′-biphenyl]-2-ol], the “Average Days Survival” value by setting is: (4 mg/kg/day) more than 19.3 days; (8 mg/kg/day) >31* Days; (16 mg/kg/day) >31* Days; (32 mg/kg/day) >31* Days; (64 mg/kg/day) >31* Days; (128 mg/kg/day) >31* Days. Also, the “Average Days Survival” value (256 mg/kg/day) is listed as >31* Days. Besides, the responders at 4 mg/kg under setting [1] is 42.9%. In addition, the responders at 8 mg/kg under setting [2] is 100%. Moreover, under setting [3], the responders at 16 mg/kg is 100%. In addition, the responders at 32 mg/kg under setting [4] is 100%. Under setting [5], the responders at 64 mg/kg was 100%. In addition, the responders at 128 mg/kg (Plasmodium berghei, 744 h, 128 mg/kg/day, read-out: Number of mice alive at day 31 (converted)) is 100%. The responders at 256 mg/kg (Plasmodium berghei, 744 h, 256 mg/kg/day, read-out: Number of mice alive at day 31 (converted)) was 100%.

`CC(C)(C)NCc1cc(C(C)(C)C)cc(-c2ccc(C(F)(F)F)cc2)c1O.Cl` [Example 22, 5-(tert-Butyl)-3-((tert-butylamino)methyl)-4′-(trifluoromethyl)-[1,1′-biphenyl]-2-ol hydrochloride]: the “Average Days Survival” value is, setting by setting: (2 mg/kg/day) more than 16.8 days; (4 mg/kg/day) more than 24 days; (8 mg/kg/day) >31* Days; (16 mg/kg/day) >31* Days; (32 mg/kg/day) >31* Days; (64 mg/kg/day) >31* Days. Besides, the responders at 2 mg/kg under setting [6] is 28.6%. Further, the responders at 4 mg/kg under setting [1] is 85.7%. Under setting [2], the responders at 8 mg/kg is 100%. The responders at 16 mg/kg under setting [3] is 100%. In addition, the responders at 32 mg/kg under setting [4] was 100%. Besides, the responders at 64 mg/kg under setting [5] is 100%.

With `CC(C)(C)NCc1cc(C(C)(C)C)cc(-c2ccc(Cl)c(Cl)c2)c1O.Cl` [Example 19, 5-(tert-Butyl)-3-((tert-butylamino)methyl)-3′,4′-dichloro-[1,1′-biphenyl]-2-ol hydrochloride], the “Average Days Survival” value (1 mg/kg/day) is more than 19.6 days; the “Average Days Survival” value (2 mg/kg/day) was more than 7 days; the “Average Days Survival” value (4 mg/kg/day) was >31* Days; the “Average Days Survival” value (8 mg/kg/day) is listed as >31* Days; the “Average Days Survival” value (16 mg/kg/day) is recorded as >31* Days. The responders at 1 mg/kg (Plasmodium berghei, 744 h, 1 mg/kg/day, read-out: Number of mice alive at day 31 (converted)) was 28.6%. For the same molecule, under setting [6], the responders at 2 mg/kg is 85.7%. In addition, the responders at 4 mg/kg under setting [1] was 100%. Also, the responders at 8 mg/kg under setting [2] was 100%. Besides, under setting [3], the responders at 16 mg/kg was 100%.

Regarding `CC(C)(C)NCc1cc(C(C)(C)C)cc(-c2cc(C(F)(F)F)cc(C(F)(F)F)c2)c1O.Cl` [Example 16, 5-(tert-Butyl)-3-((tert-butylamino)methyl)-3′,5′-bis(trifluoromethyl)-[1,1′-biphenyl]-2-ol hydrochloride], the “Average Days Survival” value reads like this: (2 mg/kg/day) more than 20.5 days; (4 mg/kg/day) more than 17 days; (8 mg/kg/day) >31* Days; (16 mg/kg/day) >31* Days; (32 mg/kg/day) >31* Days. Moreover, the responders at 2 mg/kg under setting [6] is 42.9%. For the same molecule, the responders at 4 mg/kg under setting [1] is 85.7%. For the same molecule, the responders at 8 mg/kg under setting [2] was 100%. Moreover, the responders at 16 mg/kg under setting [3] was 100%. Moreover, under setting [4], the responders at 32 mg/kg was 100%.

Regarding `CC1(NCc2cc(C(C)(C)C)cc(-c3ccc(OC(F)(F)F)cc3)c2O)CCC1.Cl` [Example 18, 5-(tert-Butyl)-3-(((1-methylcyclobutyl)amino)methyl)-4′-(trifluoromethoxy)-[1,1′-biphenyl]-2-ol hydrochloride], the “Average Days Survival” value by setting is: (4 mg/kg/day) 15.7 days; (8 mg/kg/day) >31* Days; (16 mg/kg/day) >31* Days; (32 mg/kg/day) >31* Days. In addition, the responders at 4 mg/kg under setting [1] was 0%. In addition, under setting [2], the responders at 8 mg/kg is 100%. For the same molecule, under setting [3], the responders at 16 mg/kg is 100%. Also, under setting [4], the responders at 32 mg/kg was 100%.

`CC(C)(C)NCc1cc(-c2ccc(Cl)cc2)cc(-c2ccc(Cl)c(Cl)c2)c1O.Cl` [Example 39, 5′-((tert-Butylamino)methyl)-3″,4,4″-trichloro-[1,1′:3′,1″-terphenyl]-4′-ol hydrochloride]: the “Average Days Survival” value by setting is: (2 mg/kg/day) more than 23 days; (4 mg/kg/day) >31* Days; (8 mg/kg/day) >31* Days; (16 mg/kg/day) >31* Days. The responders at 2 mg/kg under setting [6] was 14.3%. The responders at 4 mg/kg under setting [1] was 100%. Besides, the responders at 8 mg/kg under setting [2] was 100%. For the same molecule, the responders at 16 mg/kg under setting [3] was 100%.

As for `CC(C)(C)NCc1cc(C(C)(C)C)cc(-c2ccc(F)c(Cl)c2)c1O.Cl` [Example 24, 5-(tert-Butyl)-3-((tert-butylamino)methyl)-3′-chloro-4′-fluoro-[1,1′-biphenyl]-2-ol hydrochloride], the “Average Days Survival” value is more than 17 days (2 mg/kg/day); more than 14.5 days (4 mg/kg/day); more than 16 days (8 mg/kg/day); >31* Days (16 mg/kg/day); >31* Days (32 mg/kg/day). Moreover, under setting [6], the responders at 2 mg/kg is 42.9%. Under setting [1], the responders at 4 mg/kg is 71.4%. In addition, the responders at 8 mg/kg under setting [2] was 85.7%. Under setting [3], the responders at 16 mg/kg was 100%. Under setting [4], the responders at 32 mg/kg is 100%.
